# Results published in patent US20250296940A1, “ANNULATED 2-AMINO-3-CYANO THIOPHENES AND DERIVATIVES FOR THE TREATMENT OF CANCER” (Boehringer Ingelheim Int'l GmbH Corp., priority 2021, published 2025).
# Legend:
# [1] = test system: NCI-H2122 cells (NSCLC, G12C); experiment: NCI-H2122 CTG proliferation assay (120 h); type: cell-based; conditions: Homo sapiens, NCI-H2122, CellTiter-Glo
# Protocol: The CTG assay is designed to measure quantitatively the proliferation of NCI-H2122 cells (ATCC CRL-5985), using the CellTiter Glow Assay Kit (Promega G7571). Cells are grown in RPMI medium (ATCC) supplemented with Fetal Calf Serum (Life Technologies, Gibco BRL, Cat. No. 10270-106). On “day 0” 200 NCI-H2122 cells are seeded in 60 μL RPMI ATCC+10% FCS+ Penstrep in a black 384-well plate, flat and clear bottom (Greiner, PNr. 781091). Cells are then incubated in the plates at 37° C. in a CO2 incubator overnight. On day 1, compounds (10 mM stock in DMSO) are added with the ECHO acoustic liquid handler system (Beckman Coulter), including DMSO controls. Plates are incubated for 120 h, and cell viability is measured using CellTiter-Glo luminescent cell viability reagent (Promega product code G7570). Viability (stated as percent of control) is defined as relative luminescence units RLU of each well divided by the RLU of cells in DMSO controls. IC50 values are determined from viability measurements by non-linear regression using a four parameter model.
# IC50 values of representative compounds according to the invention measured with these assays in the indicated cell lines: […]
# CYP3A4 = molecular target: T1, CYP3A4 (Homo sapiens, UniProt P08684); experiment: Mechanism based inhibition of CYP3A4 assay (MBI 3A4); type: in vitro ADME; conditions: human liver microsomes, 25 uM compound; hydroxy-midazolam formation after 30 min preincubation relative to 0 min
# T1 construct: assayed in human liver microsomes (0.02 mg/mL) with midazolam (15 μM) as a substrate; from tissue; host or cells: human liver microsomes
# Protocol: The time dependent inhibition towards CYP3A4 is assayed in human liver microsomes (0.02 mg/mL) with midazolam (15 μM) as a substrate. The test compounds and water control (wells w/o test compound) are preincubated in presence of NADPH (1 mM) with human liver microsomes (0.2 mg/mL) at a concentration of 25 uM for 0 min and 30 min. After preincubation, the incubate is diluted 1:10 and the substrate midazolam is added for the main incubation (15 min). The main incubation is quenched with acetonitrile and the formation of hydroxy-midazolam is quantified via LC/MS-MS. The formation of hydroxy-midazolam from the 30 min preincubation relative to the formation from the 0 min preincubation is used as a readout. Values of less than 100% mean that the substrate midazolam is metabolized to a lower extent upon 30 min preincubation compared to 0 min preincubation. In general low effects upon 30 min preincubation are desired (corresponding to values close to 100%/not different to the values determined with water control).
# (§1) Data obtained with the disclosed assay for a selection of compounds (I) according to the invention: […]
# Caco-2 assay = type: in vitro ADME; conditions: human, 10 μM compound; for Papp A→B at 90 min, 10 μM: apical to basolateral, pH 7.4, read-out: Caco PappAB; for efflux ratio at 90 min, 10 μM: efflux ratio PappBA/PappAB, pH 7.4, read-out: Caco ER
# Text: The assay provides information on the potential of a compound to pass the cell membrane, on the extent of oral absorption as well as on whether the compound is actively transported by uptake and/or efflux transporters. Permeability measurements across polarized, confluent Caco-2 cell monolayers grown on permeable filter supports (Corning, catalog #3391) are used. […] The receiver and donor compartments contain 0.25% bovine serum albumine (BSA) in assay buffer. Passive diffusion and/or active transport of compounds across the monolayer is measured in both apical to basolateral (a-b) and basolateral to apical (b-a) direction. a-b permeability (PappAB) represents drug absorption from the intestine into the blood and b-a permeability (PappBA) drug secretion from the blood back into the intestine via both passive permeability as well as active transport mechanisms mediated by efflux and uptake transporters that are expressed on the Caco-2 cells. After a pre-incubation of 25-30 min at 37° C., at predefined time points (0, 30, 60 and 90 min), samples were taken from the receiver and donor compartment, respectively. Concentrations of test compounds in samples were measured by HPLC/MS/MS, samples from the donor compartment were diluted 1:50 (v:v) with assay buffer, samples from receiver compartment were measured without dilution.
# Apparent permeabilities in a-b (PappAB) and b-a (PappBA) directions are calculated according to the formula:
# [formula] • Vrec [mL]: buffer volume in receiver compartment • Cdon [μmol/mL]: concentration of test compound in donor compartment at t=0 • ΔCrec: difference between concentrations of test compound in receiver compartment at start and end of incubation time • Δt: Incubation time • Vrec·ΔCrec/Δt [μmol/min]: Amount of compound transferred to receiver compartment per time • A [cm^2]: filter surface
# Caco-2 efflux ratios (ER) are calculated as the ratio of PappBA/PappAB.
# as §1
# T1 sequence (P08684 whole entry): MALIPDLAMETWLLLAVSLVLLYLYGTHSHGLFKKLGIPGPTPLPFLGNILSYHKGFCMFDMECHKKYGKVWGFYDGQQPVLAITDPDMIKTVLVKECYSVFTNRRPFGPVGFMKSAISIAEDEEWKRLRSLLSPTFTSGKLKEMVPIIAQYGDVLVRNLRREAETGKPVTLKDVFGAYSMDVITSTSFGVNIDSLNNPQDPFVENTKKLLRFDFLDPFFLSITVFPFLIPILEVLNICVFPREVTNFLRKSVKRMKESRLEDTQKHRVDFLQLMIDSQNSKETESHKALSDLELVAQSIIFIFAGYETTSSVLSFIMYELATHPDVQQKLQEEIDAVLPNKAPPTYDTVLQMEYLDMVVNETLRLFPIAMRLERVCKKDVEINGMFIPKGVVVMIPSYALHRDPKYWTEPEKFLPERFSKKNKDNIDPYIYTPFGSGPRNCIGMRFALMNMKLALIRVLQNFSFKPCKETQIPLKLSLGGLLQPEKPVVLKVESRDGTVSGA
Compound,IC50 [1] [nM],MBI 3A4 (CYP3A4) [%],"Papp A→B at 90 min, 10 μM (Caco-2 assay) [×10⁻⁶ cm/s]","efflux ratio at 90 min, 10 μM (Caco-2 assay)"
C=C(F)C(=O)N1[C@@H](C)CN(c2cc(-c3onc4c3CCC[C@@]43CCCc4sc(N)c(C#N)c43)nc(O[C@@H](C)[C@@H]3CCCN3C)n2)C[C@@H]1C [Ia-3],96,,,
C=CC(=O)N1CCN(c2cc(O[C@@H](C)[C@@H]3CCCN3C)nc(-c3noc4c3CCC[C@@]43CCCc4sc(N)c(C#N)c43)n2)CC12CC2 [Ib-2],19,,,18.2
C=C(F)C(=O)N1[C@@H](C)CN(c2cc(O[C@@H](C)[C@@H]3CCCN3C)nc(-c3onc4c3CCC[C@@]43CCCc4sc(N)c(C#N)c43)n2)C[C@@H]1C [Ia-1],,61,4.4,3.6
C=CC(=O)N1[C@@H](C)CN(c2cc(O[C@@H](C)[C@@H]3CCCN3C)nc(-c3noc4c3CCC[C@@]43CCCc4sc(N)c(C#N)c43)n2)C[C@@H]1C [Ib-3],,65,6.3,3
C=C(F)C(=O)N1[C@@H](C)CN(c2cc(O[C@@H](C)[C@@H]3CCCN3C)nc(-c3noc4c3CCC[C@@]43CCCc4sc(N)c(C#N)c43)n2)C[C@@H]1C [Ib-5],21,69,11,1.1
C=CC(=O)N1[C@@H](C)CN(c2cc(O[C@@H](C)[C@@H]3CCCN3C)nc(-c3onc4c3CCC[C@@]43CCCc4sc(N)c(C#N)c43)n2)C[C@@H]1C [Ia-2],2,62,2.9,8.6
C=CC(=O)N1[C@@H](C)CN(c2cc(-c3onc4c3CCC[C@@]43CCCc4sc(N)c(C#N)c43)nc(O[C@@H](C)[C@@H]3CCCN3C)n2)C[C@@H]1C [Ia-4],4,,1.3,30.7

# Continued, values first:
IC50 [1] [nM],MBI 3A4 (CYP3A4) [%],"Papp A→B at 90 min, 10 μM (Caco-2 assay) [×10⁻⁶ cm/s]","efflux ratio at 90 min, 10 μM (Caco-2 assay)",Compound
35,64,9.2,1.7,C=C(F)C(=O)N1[C@@H](C)CN(c2cc(-c3noc4c3CCC[C@@]43CCCc4sc(N)c(C#N)c43)nc(O[C@@H](C)[C@@H]3CCCN3C)n2)C[C@@H]1C [Ib-6]
2260,68,2.4,7.5,COC/C=C/C(=O)N1[C@@H](C)CN(c2cc(-c3noc4c3CCC[C@@]43CCCc4sc(N)c(C#N)c43)nc(O[C@@H](C)[C@@H]3CCCN3C)n2)C[C@@H]1C [Ib-9]
29,,0.8,28.6,C[C@H](Oc1cc(N2C[C@H](C)N(C(=O)/C=C/CF)[C@@H](C)C2)nc(-c2noc3c2CCC[C@@]32CCCc3sc(N)c(C#N)c32)n1)[C@@H]1CCCN1C [Ib-1]
,78,3.1,12.3,C=CC(=O)N1[C@@H](C)CN(c2cc(-c3noc4c3CCC[C@@]43CCCc4sc(N)c(C#N)c43)nc(O[C@@H](C)[C@@H]3CCCN3C)n2)C[C@@H]1C [Ib-4]
190,62,2.4,10.4,C[C@H](Oc1nc(-c2noc3c2CCC[C@@]32CCCc3sc(N)c(C#N)c32)cc(N2C[C@H](C)N(C(=O)/C=C/CF)[C@@H](C)C2)n1)[C@@H]1CCCN1C [Ib-7]
999,,,,C[C@H](Oc1nc(-c2noc3c2CCC[C@@]32CCCc3sc(N)c(C#N)c32)cc(N2C[C@H](C)N(C(=O)/C=C/c3cccnc3)[C@@H](C)C2)n1)[C@@H]1CCCN1C [Ib-8]
